According to US11957735B2, “Releasable GLP-1 conjugates” (QuiaPEG Pharmaceuticals AB, priority 2018, dated 2024):

Assay: pH-triggered hydrolysis (T1/2) in TRIS buffer at 37° C., HPLC with AZT internal reference
Type: physicochemical
Details: pH 8, hydrolysis of aminouridine carbamate, process of Example 1
Experimental: In the following experiment, the T1/2 at pH 8 is calculated to be approx. 11 h, which translates to 44 h at pH 7.4 (factor 4×). ˜1 mg conjugate was dissolved in a volume of 20% MeCN in water. An appropriate amount of azidothymidine (AZT) was added as an internal reference and the hydrolysis was started by addition of a volume of 0.3 M TRIS buffer solution at pH 8.0. The reaction mixture was then kept at 37° C. 30 μL aliquots were taken at each time point and acidified by addition of 20 μL 1 M AcOH before injection to HPLC.

- half-life: 12 days
SMILES: O=C(NC1C(O)[C@@H](CO)O[C@H]1n1ccc(=O)[nH]c1=O)OCC(c1ccccc1)c1ccccc1 (stereo partly shown) [compound 1]
